Source: EP3708565A1, “PYRIMIDINYLOXYPHENYLAMIDINES AND THE USE THEREOF AS FUNGICIDES” (Bayer AG, priority 2020, dated 2020)

Tests used:
[1] = LogP measurement by HPLC on reversed phase columns (EEC directive 79/831 Annex V.A8); assay type: physicochemical
Experimental: If more than one LogP value is available within the same method, all the values are given and separated by "+".
Lambda-max-values were determined using UV-spectra from 200 nm to 400 nm and the peak values of the chromatographic signals.

Puccinia recondita = test: in vivo preventive test on Puccinia recondita (brown rust on wheat); settings: for pest or weed control at 500 ppm: Puccinia recondita, 264 h, 500 ppm of active ingredient, young wheat plants sprayed, inoculated after 24 hours, evaluated 11 days after the inoculation, read-out: efficacy; for efficacy: 500 ppm
Experimental: Example: in vivo preventive test on Puccinia recondita (brown rust on wheat)
(§1) The active ingredients were made soluble and homogenized in a mixture of Dimethyl sulfoxide/Acetone/ /Tween® 80 and then diluted in water to the desired concentration.
The young plants of wheat were treated by spraying the active ingredient prepared as described above. Control plants were treated only with an aqueous solution of Acetone/Dimethyl sulfoxide/ Tween® 80.
After 24 hours, the plants were contaminated by spraying the leaves with an aqueous suspension of Puccinia recondita spores. The contaminated wheat plants were incubated for 24 hours at 20°C and at 100% relative humidity and then for 10 days at 20°C and at 70-80% relative humidity.
The test was evaluated 11 days after the inoculation. 0% means an efficacy which corresponds to that of the control plants while an efficacy of 100% means that no disease was observed.

Sphaerotheca fuliginea = test: in vivo preventive test on Sphaerotheca fuliginea (powdery mildew on cucurbits); settings: 500 ppm of active ingredient, young gherkin plants sprayed, inoculated after 24 hours, evaluated 8 days after the inoculation; for pest or weed control at 500 ppm: Podosphaera fuliginea, 192 h, read-out: efficacy
Experimental: Example: in vivo preventive test on Sphaerotheca fuliginea (powdery mildew on cucurbits)
as §1
The young plants of gherkin were treated by spraying the active ingredient prepared as described above. Control plants were treated only with an aqueous solution of Acetone/Dimethyl sulfoxide/ […].
After 24 hours, the plants were contaminated by spraying the leaves with an aqueous suspension of Sphaerotheca fuliginea spores. The contaminated gherkin plants were incubated for 8 days at 20°C and at 70-80% relative humidity.
The test was evaluated 8 days after the inoculation. 0% means an efficacy which corresponds to that of the control plants while an efficacy of 100% means that no disease was observed.

Phakospora pachyrhizi = test: in vivo preventive test on Phakospora pachyrhizi (soybean rust); settings: for pest or weed control at 500 ppm: Glycine max, 288 h, 500 ppm of active ingredient, young soybean plants sprayed, inoculated after 24 hours, evaluated 12 days after the inoculation, read-out: efficacy; for efficacy: 500 ppm
Experimental: Example: in vivo preventive test on Phakospora pachyrhizi (soybean rust)
as §1
The young plants of soybean were treated by spraying the active ingredient prepared as described above. Control plants were treated only with an aqueous solution of Acetone/Dimethyl sulfoxide/ […].
After 24 hours, the plants were contaminated by spraying the leaves with an aqueous suspension of Phakosporapachyrhizi spores. The contaminated soybean plants were incubated for 24 hours at 24°C and at 100% relative humidity and then for 11 days at 24°C and at 70-80% relative humidity.
The test was evaluated 12 days after the inoculation. 0% means an efficacy which corresponds to that of the control plants while an efficacy of 100% means that no disease was observed.

[2] = reversed phase HPLC column, method [a]: LC-UV, acidic range, 0.1% formic acid in water and acetonitrile as eluent
[3] = reversed phase HPLC column, method [b]: LC-UV, neutral range, 0.001 molar ammonium acetate solution in water and acetonitrile as eluent
[4] = method [a]: LC-UV, acidic range, 0.1% formic acid in water and acetonitrile as eluent
[5] = method [b]: LC-UV, neutral range, 0.001 molar ammonium acetate solution in water and acetonitrile as eluent

Structure (SMILES) | chromatographic logP [1, 2] | chromatographic logP [1, 3] | chromatographic logP [1, 4] | chromatographic logP [1, 5] | pest or weed control at 500 ppm (Puccinia recondita) | pest or weed control at 500 ppm (Sphaerotheca fuliginea) | pest or weed control at 500 ppm (Phakospora pachyrhizi) | efficacy (Puccinia recondita) | efficacy (Sphaerotheca fuliginea) | efficacy (Phakospora pachyrhizi)
CCN(C)C=Nc1cc(C)c(Oc2ccnc(SC3CCCC3)n2)cc1C [I.012, N'-[4-(2-cyclopentylsulfanylpyrimidin-4-yl)oxy-2,5-dimethylphenyl]-N-ethyl-N-methylmethan-imidamide] | 1.75 |  |  |  | ≥ 70% | ≥ 70% | ≥ 70% |  |  | 
CCN(C)C=Nc1cc(C)c(Oc2ccnc(SCCC(F)(F)F)n2)cc1C [I.013, N'-[2,5-dimethyl-4-[2-(3,3,3-trifluoropropylsulfanyl)pyrimidin-4-yl]oxyphenyl]-N-ethyl-N-methylmethanimidamide] | 1.58 |  |  |  | ≥ 70% | ≥ 70% | ≥ 70% |  |  | 
CCN(C)C=Nc1cc(Br)c(Oc2ccnc(SC(C)C)n2)cc1C [I.014, N'-[5-bromo-2-methyl-4-(2-propan-2-ylsulfanylpyrimidin-4-yl)oxyphenyl]-N-ethyl-N-methyl-methanimidamide] | 1.6 | 4.78 |  |  | ≥ 70% | ≥ 70% | ≥ 70% |  |  | 
CCCSc1nccc(Oc2cc(C)c(N=CN(C)CC)cc2Br)n1 [I.015, N'-[5-bromo-2-methyl-4-(2-propylsulfanylpyrimidin-4-yl)oxyphenyl]-N-ethyl-N-methylmethan-imidamide] | 1.66 | 4.86 |  |  | ≥ 70% | ≥ 70% | ≥ 70% |  |  | 
CCSc1nccc(Oc2cc(C)c(N=CN(C)CC)cc2Br)n1 [I.016, N'-[5-bromo-4-(2-ethylsulfanylpyrimidin-4-yl)oxy-2-methylphenyl]-N-ethyl-N-methylmethan-imidamide] | 1.46 | 4.44 |  |  | ≥ 70% | ≥ 70% | ≥ 70% |  |  | 
CCN(C)C=Nc1cc(Br)c(Oc2ccnc(C(F)(F)F)n2)cc1C [I.017, N'-[5-bromo-2-methyl-4-[2-(trifluoromethyl)pyrimidin-4-yl]oxyphenyl]-N-ethyl-N-methyl-methanimidamide] | 1.32 | 4.08 |  |  | ≥ 70% | ≥ 70% | ≥ 70% |  |  | 
CCN(C)C=Nc1cc(Br)c(Oc2cc(SC(C)(C)C)nc(C)n2)cc1C [I.018, N'-[5-bromo-4-(6-tert-butylsulfanyl-2-methylpyrimidin-4-yl)oxy-2-methylphenyl]-N-ethyl-N-methylmethanimidamide] | 2.11 | 5.99 |  |  | ≥ 70% | ≥ 70% | ≥ 70% |  |  | 
CCSc1nc(C)cc(Oc2cc(C)c(N=CN(C)CC)cc2C)n1 [I.019, N-ethyl-N'-[4-(2-ethylsulfanyl-6-methylpyrimidin-4-yl)oxy-2,5-dimethylphenyl]-N-methyl-methanimidamide] | 1.52 |  |  |  | ≥ 70% | ≥ 70% | ≥ 70% |  |  | 
CCCSc1nc(C)cc(Oc2cc(C)c(N=CN(C)CC)cc2C)n1 [I.020, N'-[2,5-dimethyl-4-(6-methyl-2-propylsulfanylpyrimidin-4-yl)oxyphenyl]-N-ethyl-N-methyl-methanimidamide] | 1.69 |  |  |  | ≥ 70% | ≥ 70% | ≥ 70% |  |  | 
CCN(C)C=Nc1cc(C)c(Oc2cc(C)nc(SCC(C)C)n2)cc1C [I.021, N'-[2,5-dimethyl-4-[6-methyl-2-(2-methylpropylsulfanyl)pyrimidin-4-yl]oxyphenyl]-N-ethyl-N-methylmethanimidamide] | 1.84 |  |  |  | ≥ 70% | ≥ 70% | ≥ 70% |  |  | 
CCN(C)C=Nc1cc(C)c(Oc2cc(C)nc(SC(C)C)n2)cc1C [I.022, N'-[2,5-dimethyl-4-(6-methyl-2-propan-2-ylsulfanylpyrimidin-4-yl)oxyphenyl]-N-ethyl-N-methylmethanimidamide] | 1.69 |  |  |  | ≥ 70% | ≥ 70% | ≥ 70% |  |  | 
CCN(C)C=Nc1cc(C)c(Oc2cc(SC(C)(C)C)nc(C)n2)cc1C [I.023, N'-[4-(6-tert-butylsulfanyl-2-methylpyrimidin-4-yl)oxy-2,5-dimethylphenyl]-N-ethyl-N-methyl-methanimidamide] | 1.99 |  |  |  | ≥ 70% | ≥ 70% | ≥ 70% |  |  | 
CCC(C)Sc1cc(Oc2cc(C)c(N=CN(C)CC)cc2C)nc(C)n1 (centres unmarked) [I.024, N'-[4-(6-butan-2-ylsulfanyl-2-methylpyrimidin-4-yl)oxy-2,5-dimethylphenyl]-N-ethyl-N-methyl-methanimidamide] | 2.02 | 5.98 |  |  | ≥ 70% | ≥ 70% | ≥ 70% |  |  | 
CCN(C)C=Nc1cc(C(F)F)c(Oc2ccnc(SCC(C)C)n2)cc1C [I.025, N'-[5-(difluoromethyl)-2-methyl-4-[2-(2-methylpropylsulfanyl)pyrimidin-4-yl]oxyphenyl]-N-ethyl-N-methylmethanimidamide] | 1.69 |  |  |  | ≥ 70% | ≥ 70% | ≥ 70% |  |  | 

Second part, led by results:

chromatographic logP [1, 2] | chromatographic logP [1, 3] | chromatographic logP [1, 4] | chromatographic logP [1, 5] | Structure (SMILES) | pest or weed control at 500 ppm (Puccinia recondita) | pest or weed control at 500 ppm (Sphaerotheca fuliginea) | pest or weed control at 500 ppm (Phakospora pachyrhizi) | efficacy (Puccinia recondita) | efficacy (Sphaerotheca fuliginea) | efficacy (Phakospora pachyrhizi)
 |  | 1.27 | 4.12 | CCSc1nccc(Oc2cc(C)c(N=CN(C)CC)cc2C)n1 [I.027, N-ethyl-N'-[4-(2-ethylsulfanylpyrimidin-4-yl)oxy-2,5-dimethylphenyl]-N-methylmethanimid-amide] |  |  |  | at least 70% | at least 70% | at least 70%
1.45 | 4.54 |  |  | CCN(C)C=Nc1cc(C)c(Oc2ccnc(SC(C)C)n2)cc1C [I.028, N'-[2,5-dimethyl-4-(2-propan-2-ylsulfanylpyrimidin-4-yl)oxyphenyl]-N-ethyl-N-methylmethan-imidamide] | ≥ 70% | ≥ 70% | ≥ 70% |  |  | 
 |  | 1.46 | 4.61 | CCCSc1nccc(Oc2cc(C)c(N=CN(C)CC)cc2C)n1 [I.029, N'-[2,5-dimethyl-4-(2-propylsulfanylpyrimidin-4-yl)oxyphenyl]-N-ethyl-N-methylmethanimid-amide] |  |  |  | at least 70% | at least 70% | at least 70%
1.24 | 3.82 |  |  | CCN(C)C=Nc1cc(C)c(Oc2ccnc(C(F)(F)F)n2)cc1C [I.030, N'-[2,5-dimethyl-4-[2-(trifluoromethyl)pyrimidin-4-yl]oxyphenyl]-N-ethyl-N-methylmethan-imidamide] | ≥ 70% | ≥ 70% | ≥ 70% |  |  | 
1.52 | 4.37 |  |  | CCN(C)C=Nc1cc(C)c(Oc2ccnc(SCC(F)(F)F)n2)cc1C [I.031, N'-[2,5-dimethyl-4-[2-(2,2,2-trifluoroethylsulfanyl)pyrimidin-4-yl]oxyphenyl]-N-ethyl-N-methylmethanimidamide] | ≥ 70% | ≥ 70% | ≥ 70% |  |  | 
1.34 | 4.16 |  |  | CCN(C)C=Nc1cc(C)c(Oc2cc(C)nc(SC)n2)cc1C [I.033, N'-[2,5-dimethyl-4-(6-methyl-2-methylsulfanylpyrimidin-4-yl)oxyphenyl]-N-ethyl-N-methyl-methanimidamide] | ≥ 70% | ≥ 70% | ≥ 70% |  |  | 
